These are literature values, as cited in patent publication US20220323308A1, “DISSOLVABLE VITAMIN C AND RETINOL FILM” (Mary Kay Inc., priority 2019, published 2022).

Each structure is given as a SMILES string.

For this data set the following is noted: topical, when properly formulated.

On to `O=C1O[C@H]([C@@H](O)CO)C(O)=C1O` [ascorbic acid], for which the “enhancement of endogenous ascorbic acid levels in the skin” value was “up to twenty-fold”.
